In patent US20220304945A1, “METHODS OF TREATING METABOLIC SYNDROME RELATED CONDITIONS USING RETINOIC ACID RECEPTOR AGONISTS” (Cornell University, priority 2014, published 2022):
Entries after “also recorded” stand apart in the source; their conditions may differ.

Legend:
α-SMA = α-SMA immunofluorescence of kidney, HF-fed mice; assay type: in vivo, mouse; conditions: HF diet mice 4 months
Description: (§1) Mice, diet, and drug treatment. WT male C57/BL6 male mice were maintained on either a standard laboratory chow-fed diet (CFD) with 13% kcal fat, (diet #5053, Lab Diet, Inc, St. Louis, Mo.) or a high fat, western style diet (HFD) with 60% kcals from fat, (diet #58126, Lab Diet, Inc., St. Louis, Mo.) for 4 months. One month after the start of the high fat diet treatment, the high fat diet group was further split into 2 groups for 3 months: i) high fat diet and the drinking water containing 1% DMSO; ii) high fat diet and the drinking water containing 1.5 mg/100 ml AC261066, a specific RARβ agonist. Then mice were sacrificed by cervical dislocation. Blood and various tissue samples were harvested.
Combined oil red O and Immunofluorescence staining. Fresh mouse kidney samples were embedded in optimal cutting temperature (OCT) medium and immediately frozen to −70 centigrade. Cryosections were then fixed in 4% formaldehyde for 1 hr at room temp. Slides were then rinsed three times in deionized water (dH2O) for 30 s, followed by treatment with 0.5% Triton X-100 in PBS for 5 min. Sections were then washed three times with PBS for 5 min. Samples were with incubated 2% bovine serum albumin (BSA) for 30 min at room temperature to block for unspecific antibody binding. […]

RARβ2 = target: T1, RARβ2 (Homo sapiens, UniProt P10826); conditions: as described in Lund et al. 2005; cited from earlier work
T1 sequence (P10826 1-448 isoform P10826-2): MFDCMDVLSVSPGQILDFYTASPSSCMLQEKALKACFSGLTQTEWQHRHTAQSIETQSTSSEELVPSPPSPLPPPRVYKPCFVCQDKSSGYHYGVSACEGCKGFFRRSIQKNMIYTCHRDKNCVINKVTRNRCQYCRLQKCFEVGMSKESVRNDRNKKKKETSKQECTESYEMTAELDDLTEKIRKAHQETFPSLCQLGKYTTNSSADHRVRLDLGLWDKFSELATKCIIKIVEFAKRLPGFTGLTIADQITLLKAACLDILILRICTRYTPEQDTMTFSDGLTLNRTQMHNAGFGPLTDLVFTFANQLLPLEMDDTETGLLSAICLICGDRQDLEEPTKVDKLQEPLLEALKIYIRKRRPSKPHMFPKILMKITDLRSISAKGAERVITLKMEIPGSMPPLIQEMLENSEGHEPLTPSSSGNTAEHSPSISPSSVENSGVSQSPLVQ

RARβ2 mRNA = test: Semi-quantitative PCR of pancreas, HF-fed mice; assay type: in vivo, mouse; conditions: HF diet mice; vs HF-vehicle
Description: as §1
Semi-Quantitate PCR. Total RNA was extracted from mouse tissues using TRIzol reagent (Life technologies) and (1 μg) was used to synthesize cDNA. cDNA synthesis was performed at 42° C. for 1 h in a final volume of 20 μl using qScript (Quanta, MD). Semi-quantitative PCR were performed Taq DNA polymerase (Invitrogen, CA). Three step PCR was run as follows: 94° C. for 30 s, 58-64° C. for 45 s for primer annealing and 72° C. for 1 min for primer extension. The number of cycles for each primer pair for amplification in the linear range was determined experimentally. PCR products were resolved on 2% agarose gels and visualized by staining with ehtidium bromide. […]

[1] = tested on: SREBP1, FASN, PPAR-α, CPT1-α, MCP-1, TNF-α, α-SMA mRNA; test: PCR of kidney genes of lipid metabolism, inflammation and fibrosis in HFD, Ob/Ob and Db/Db mice (Example 23); assay type: in vivo, mouse
Protocol: Quantitative RT-PCR (Q-PCR)-Q-PCR was performed using SYBR Green PCR master mix on a Bio-Rad MyiQ2 Real Time PCR iCycler (Bio-Rad, Inc. Hercules, Calif.). Gene specific primers (Table 5) were used to amplify mRNA target genes, which were normalized to Hprt internal control genes. cDNA from 3-5 mice per experimental group was analyzed for relative mRNA fold changes, calculated using the Pfaffl method (Pfaffl M W, A new mathematical model for relative quantification in real-time RT-PCR, Nucleic Acids Res. 2001 May 1; 29(9):e45). Relative gene expression values are reported as mean±standard error of the mean (S.E.M) and P-values calculated using one-way analysis of variance followed by Bonferroni multiple comparison test post-hoc analysis.
Diabetic kidney disease (aka diabetic nephropathy (DN)) frequently occurs in individuals with type 2 diabetes. The causes of DN are unclear but insulin resistance, hyperlipidemia and obesity are implicated because these states can impair renal lipid metabolism leading to the accumulation of free fatty acids (FFA), which can promote renal inflammation, fibrosis and impaired kidney function. There is evidence that transcriptions factors involved in de novo lipid synthesis such as srebpl contribute to the pathogenesis of DN. […] HF-fed mice treated with AC261066 had no increase in mRNA transcripts of SREBP1 and FASN (FIG. 33A).
We also measured kidney mRNA levels of pro-inflammatory and fibrogenic mediators MCP-1 (aka CCL2), TNF-α, and α-SMA in HFD-fed mice and two genetic mouse models of obesity and diabetes, Ob/Ob and Db/Db mice. MCP-1, TNF-α, and α-SMA are implicated in inflammation and fibrosis in DN and expression of these genes are frequently elevated in models of DN. […] Kidney mRNA transcripts of α-SMA, which contributes to DN fibrosis, was increased 5-6 fold in HFD Ob/Ob and Db/Db mice compared to wt con (FIG. 33D). HFD Ob/Ob and Db/Db mice treated AC261066 had 40-50% reductions in a-SMA transcripts compared to their respective HFD and genetic controls (FIG. 33D).

[2] = HFD, Ob/Ob and Db/Db mice vs respective untreated

Structure (SMILES): CCCCOCCOc1nc(-c2ccc(C(=O)O)c(F)c2)sc1C [AC261066]
- α-SMA positive areas in kidney (α-SMA): diminished; also recorded: not observed
- isoform selectivity for the human RARβ2 receptors (RARβ2): highly isoform-selective agonists
- pancreatic RARβ2 mRNA level (RARβ2 mRNA): increased
- kidney mRNA transcripts of PPAR-α and CPT1-α, increase vs HFD-fed mice ([1]; HF-fed mice): approximately 2 fold
- kidney mRNA transcripts of SREBP1 and FASN ([1]; HF-fed mice): no increase
- reduction in kidney α-SMA transcripts ([1]; HFD, Ob/Ob and Db/Db mice vs respective controls): 40-50%
- reduction in kidney mRNA transcripts of MCP-1 [1, 2]: 40-50%
- reduction in kidney mRNA transcripts of TNF-α [1, 2]: 40-50%
